Assay results as given in patent US6933321B2, “Antiandrogenic biphenyls” (Endorecherche, Inc., priority 2002, dated 2005).
Read-outs that look alike come from different tables or passages of the source.

How the values were obtained:
[1] = tested on: ear sebaceous glands in the male hamster; assay: Topical antiandrogenic activity, ear sebaceous glands model in the male hamster; format: in vivo, Golden Syrian hamster; settings: Mesocricetus auratus, 336 h, topical on left pinna, area of sebaceous glands of left ear, read-out: Ear Area Inhibition. Vs Control (%); for inhibition in vivo at 0.03 mg: dose 30 μg daily for 14 days; for inhibition in vivo at 0.01 mg: dose 10 μg daily for 14 days
Description: • Column 2 represent the daily dose for 14 days of tested compound dissolved in ten μl solution of acetone:ethanol:propylene Glycol (1:1:2; v:v:v) applied onto a region between the two cartilage ridges of the ventral surface of left pinna. • Column 3 represents the percentage of inhibition of the area of the sebaceous glands of the left ear of the treated animals versus the area of the sebaceous glands of the left ear of the control animals.
C—In vivo Assessment of Topical Antiandrogenic Activity
The antiandrogenic activity of compounds for topical use was determined using the ear sebaceous glands model in the male hamster.
Male Golden Syrian Hamsters (SYR) of 110-120 g were obtained from Harlan Sprague-Dawley (Madison, USA) and housed up to 2 per plastic cage in a temperature (22±3° C.) and light (12 h light/day, lights on at 7h15)-controlled environment. The hamsters were fed with Certified Rodent Diet 5002 (pellet) and had access to tap water ad libitum. The animals were acclimatized for at least five days prior to beginning the study. Animals were randomly assigned to groups of eight hamsters. One group of hamsters were castrated under isoflurane-induced anesthesia on the day of dosing initiation (SD 1) and used as control group.
To evaluate the antiandrogenic activity, the tested compounds were applied topically on the inner part of the left ear, once daily, for 14 days. […] For animals of the castrated and intact control groups, one ten-μL vehicle was applied onto the left ear. No solution was applied on the right ear.
On Study Day 15, the hamsters were euthanized by cervical dislocation under isoflurane anesthesia. The left and right ears were collected attached together by the head skin, flat fixed on a paper and then immersed in 10% neutral buffered formalin. Punctures making a circular hole of 6 mm were made on the flat fixed ear in the region where the solution has been applied. These punch-made specimens were collected from each ear. Using a scalpel blade, the collected 6 mm round ear specimens were cut in the middle between the two cartilage ridges. The two equal parts of the ear round specimens were embedded in paraffin. After processing the tissue, the two parts were vertically embedded parallel to each other in such a way that the flat 6 mm area was facing out. From each paraffin block, one section (5 μm thick) was cut and collected on a glass slide. Thus, each slide contained two elongated sections of 6 mm length. Slides were stained with hematoxylin and eosin.
Using the video camera and the lens number X5 of the light microscope, the resulting field appearing on the screen has a length of 0.953 mm. When the first 6 mm long section was examined from the left to the right, the first and second fields were ignored and the third and fourth fields were captured for analysis by the image analyzer. Each field has the length of 0.953 mm. With the help of the screen mouse, the sebaceous glands within the whole field length (0.953 mm) were marked. Also, an area having the length of the whole field and the height between stratum granulosum and the upper edge of the cartilage was drawn.
The total area of the sebaceous glands (μm^2) in each examined field was calculated by the Image Analyser. We also measured the total area, which has the length of 0.953 mm and the height between stratum granulosum and the cartilage. In addition, the percentage of the area occupied by the glands was obtained. Thus, for each ear, two sections were cut and two fields from each section were analyzed. The total of the four readings was averaged and the mean standard error of the mean was calculated by the image analyzer. The results were expressed in μm^2 as the total surface of glands per field and also as percentage of the area occupied by the glands in the tissue.

[2] = tested on: Shionogi mouse mammary carcinoma cells; assay: Antiandrogenic activity on DHT-stimulated Shionogi mouse mammary carcinoma cell number; format: cell-based; settings: for A = Ki OH-Flu/Ki compound: ratio of Ki of hydroxyflutamide versus tested compound, higher values preferable
[3] = Mus musculus, inhibition of DHT-stimulated Shionogi cell number, 10-12 days, read-out: Antiandrogenic activity IC50
[4] = inhibition of DHT-stimulated Shionogi cell number
[5] = Mus musculus, read-out: Antiandrogenic activity IC50 (nM)
[6] = inhibition of DHT-stimulated Shionogi cell number, 10-12 days, read-out: Antiandrogenic activity IC50

Row | SMILES | IC50 [2, 3] | A = Ki OH-Flu/Ki compound [2, 4] | IC50 [2, 5] | further results
1 | N#Cc1ccc(-c2ccc(N)cc2)cc1C(F)(F)F [EM-4186] | 118 nM | 1.2 |  | inhibition in vivo at 0.03 mg ([1]; topical): 0%
2 | COc1cc(F)ccc1-c1ccc(C#N)c(C(F)(F)F)c1 [EM-4068] |  | 0.9 | 96 nM | inhibition in vivo at 0.03 mg ([1]; topical): 15%
3 | N#Cc1ccc(-c2ccc(F)cc2C(=O)Nc2ccc(Cl)cc2)cc1C(F)(F)F [EM-4863] |  | 0.3 |  | inhibition in vivo at 0.03 mg [1]: 21%; IC50 [2, 6]: 161 nM
4 | COc1ccc(-c2ccc(C#N)c(C(F)(F)F)c2)c(F)c1 [EM-4174] |  | 2.1 | 77 nM | inhibition in vivo at 0.01 mg ([1]; topical): 86%
5 | N#Cc1ccc(-c2c(F)cccc2F)cc1C(F)(F)F [EM-4004] | > 500 nM | <0.2 |  | inhibition in vivo at 0.01 mg ([1]; topical): 60%
6 | COc1ccc(-c2ccc(C#N)c(C(F)(F)F)c2)cc1Br [EM-4080] | 102 nM | 0.6 |  | inhibition in vivo at 0.03 mg ([1]; topical): 5%
7 | N#Cc1ccc(-c2cccc(C(O)C(F)(F)F)c2)cc1C(F)(F)F (stereo not shown) [EM-4265] | 116 nM | 0.7 |  | inhibition in vivo at 0.03 mg ([1]; topical): 0%
8 | N#Cc1ccc(-c2c(F)cccc2F)cc1Cl [EM-4977, 3-chloro-2′,6′-difluoro-biphenyl-4-carbonitrile] |  | 12 | 12.8 nM | inhibition in vivo at 0.001 mg ([1]; topical, dose 1 μg daily for 14 days): 25.9%; inhibition in vivo at 0.003 mg ([1]; topical, dose 3 μg daily for 14 days): 48%; inhibition in vivo at 0.01 mg ([1]; topical): 73%
9 | COc1ccc(-c2ccc(C#N)c(C(F)(F)F)c2)cc1F [EM-4057] |  | 1.2 | 84 nM | inhibition in vivo at 0.01 mg ([1]; topical): 64%
10 | N#Cc1ccc(-c2cc(F)ccc2F)cc1C(F)(F)F [EM-4046] | > 500 nM | <0.2 |  | inhibition in vivo at 0.03 mg ([1]; topical): 5%
11 | COc1ccc(-c2ccc([N+](=O)[O-])cc2)cc1 [EM-3234] | > 500 nM | <0.2 |  | 
12 | N#Cc1ccc(-c2ccc(F)cc2C(=O)Nc2ccc(F)cc2)cc1C(F)(F)F [EM-5018] | > 500 nM | <0.2 |  | 
13 | COC=Nc1cc(F)cc(C(N)=O)c1-c1ccc(C#N)c(C(F)(F)F)c1 [EM-5093] | > 500 nM | <0.2 |  | 
14 | N#Cc1ccc(-c2ccccc2)cc1C(F)(F)F [EM-4118] | > 500 nM | <0.2 |  | 
15 | CCN(CC)C(=O)c1cc(F)ccc1-c1ccc(C#N)c(C(F)(F)F)c1 [EM-4841] | > 500 nM | <0.2 |  | 
16 | N#Cc1ccc(-c2ccc(F)cc2C(=O)N2CCCCC2)cc1C(F)(F)F [EM-5020] |  | <0.2 | > 500 nM | 
17 | N#Cc1ccc(-c2ccc(F)cc2[N+](=O)[O-])cc1C(F)(F)F [EM-4234] |  | 3.2 | 43.2 nM | 
18 | N#Cc1ccc(-c2ccc(C#N)c(C(F)(F)F)c2)cc1 [EM-3730] | 190 nM |  |  | IC50 [2, 6]: 152 nM
19 | N#Cc1ccc(-c2ccc(F)cc2C(=O)NCc2ccccc2)cc1C(F)(F)F [EM-5085] | > 500 nM | <0.2 |  | 
20 | COc1ccc(-c2ccc(C#N)c(C(F)(F)F)c2)c(C(N)=O)c1 [EM-4905] | > 500 nM | <0.2 |  | 
